# According to US20020065219A1, “Water soluble thiazolyl peptide derivatives” (priority 2000, published 2002):
# Where two headings read alike, the source gives them in different places.
# How the values were obtained:
# Experiment in all cases: MIC, broth micro dilution assay (NCCLS)
# Format in all cases: cell-based
# [1] = tested on: Staphylococcus aureus A15090
# [2] = tested on: Streptococcus pneumoniae A28272
# [3] = tested on: Enterococcus faecalis A20688
# [4] = Mueller-Hinton medium, 35° C., 18 hours
# [5] = 50% Mueller-Hinton medium and 50% Todd Hewitt medium, 35° C., 18 hours
Compound,MIC (μg/mL) against Staphylococcus aureus A15090 [1],MIC (μg/mL) against Streptococcus pneumoniae A28272 [2],MIC (μg/mL) against Enterococcus faecalis A20688 [3],"MIC (μg/mL) against Staphylococcus aureus A15090 [1, 4]","MIC (μg/mL) against Streptococcus pneumoniae A28272 [2, 5]","MIC (μg/mL) against Enterococcus faecalis A20688 [3, 4]"
COC(C)=C1NC(=O)C(C(C)O)NC(=O)c2csc(n2)-c2cc(O)c(-c3nc(C(=O)NC(CN4CC5CC4CN5C)C(N)=O)cs3)nc2-c2csc(n2)C2COC(=O)c3c4c5c(cccc5n3O)COC(=O)C(OC3CC(C)(O)C(N(C)C)C(C)O3)C(OC4)C(NC(=O)c3csc1n3)c1nc(cs1)C(=O)N2 (stereo not drawn) [Example 73],0.25 µg/mL,0.015 µg/mL,2.0 µg/mL,,,
CO/C(C)=C1/NC(=O)C(C(C)O)NC(=O)c2csc(n2)-c2cc(O)c(-c3nc(C(=O)NC(CN(C)CCc4c[nH]cn4)C(N)=O)cs3)nc2-c2csc(n2)C2COC(=O)c3c4c5c(cccc5n3O)COC(=O)C(O[C@H]3C[C@](C)(O)[C@H](N(C)C)[C@H](C)O3)C(OC4)C(NC(=O)c3csc1n3)c1nc(cs1)C(=O)N2 (stereo partly drawn) [Example 56],0.25 µg/mL,0.125 µg/mL,0.5 µg/mL,,,
CCOC(=O)CN1CCN(CC(NC(=O)c2csc(-c3nc4c(cc3O)-c3nc(cs3)C(=O)NC(C(C)O)C(=O)N/C(=C(\C)OC)c3nc(cs3)C(=O)NC3c5nc(cs5)C(=O)NC(COC(=O)c5c6c7c(cccc7n5O)COC(=O)C(O[C@H]5C[C@](C)(O)[C@H](N(C)C)[C@H](C)O5)C3OC6)c3nc-4cs3)n2)C(N)=O)CC1 (stereo partly drawn) [Example 36],,,,0.06 µg/mL,0.007 µg/mL,0.25 µg/mL
COC(C)=C1NC(=O)C(C(C)O)NC(=O)c2csc(n2)-c2cc(O)c(-c3nc(C(=O)NC(CSCC4NC(=O)NC4=O)C(N)=O)cs3)nc2-c2csc(n2)C2COC(=O)c3c4c5c(cccc5n3O)COC(=O)C(OC3CC(C)(O)C(N(C)C)C(C)O3)C(OC4)C(NC(=O)c3csc1n3)c1nc(cs1)C(=O)N2 (stereo not drawn) [Example 45],,,,4.0 µg/mL,0.03 µg/mL,128 µg/mL
COC(C)=C1NC(=O)C(C(C)O)NC(=O)c2csc(n2)-c2cc(O)c(-c3nc(C(=O)NC(CN(C)CCCn4ccnc4)C(N)=O)cs3)nc2-c2csc(n2)C2COC(=O)c3c4c5c(cccc5n3O)COC(=O)C(O)C(OC4)C(NC(=O)c3csc1n3)c1nc(cs1)C(=O)N2 (stereo not drawn) [Example 97],,,,0.125 µg/mL,0.125 µg/mL,0.25 µg/mL
COC(C)=C1NC(=O)C(C(C)O)NC(=O)c2csc(n2)-c2cc(O)c(-c3nc(C(=O)NC(CSCC(NC(C)=O)C(=O)O)C(N)=O)cs3)nc2-c2csc(n2)C2COC(=O)c3c4c5c(cccc5n3O)COC(=O)C(OC3CC(C)(O)C(N(C)C)C(C)O3)C(OC4)C(NC(=O)c3csc1n3)c1nc(cs1)C(=O)N2 (stereo not drawn) [Example 43],,,,2.0 µg/mL,0.125 µg/mL,8.0 µg/mL
COC(C)=C1NC(=O)C(C(C)O)NC(=O)c2csc(n2)-c2cc(O)c(-c3nc(C(=O)NC(CN(C)CCC(=O)Nc4ccncc4)C(N)=O)cs3)nc2-c2csc(n2)C2COC(=O)c3c4c5c(cccc5n3O)COC(=O)C(OC3CC(C)(O)C(N(C)C)C(C)O3)C(OC4)C(NC(=O)c3csc1n3)c1nc(cs1)C(=O)N2 (stereo not drawn) [Example 82],,,,0.5 µg/mL,0.03 µg/mL,0.5 µg/mL
CO/C(C)=C1/NC(=O)C(C(C)O)NC(=O)c2csc(n2)-c2cc(O)c(-c3nc(C(=O)NC(CSC4CN5CCC4CC5)C(N)=O)cs3)nc2-c2csc(n2)C2COC(=O)c3c4c5c(cccc5n3O)COC(=O)C(O[C@H]3C[C@](C)(O)[C@H](N(C)C)[C@H](C)O3)C(OC4)C(NC(=O)c3csc1n3)c1nc(cs1)C(=O)N2 (stereo partly drawn) [Example 60],2.0 µg/mL,0.5 µg/mL,2.0 µg/mL,,,
